Among the data in publication PMC6151521, “Characterization of the Ornithine Hydroxylation Step in Albachelin Biosynthesis” (Molecules : A Journal of Synthetic Chemistry and Natural …, 2017) are Km values, retold here.

The test has as its system T1, albachelin monooxygenase (AMO).
T1 construct: expressed in E. coli (pVP56K) as 8xHis-MBP fusion, tag removed with TEV protease; MW 49 kDa
Description: oxygen consumption (Oxygraph). Conditions: holo-AMO, 100 mM sodium phosphate pH 7.5. The class given is biochemical, Amycolatopsis alba. An excerpt: oxygen consumption (Oxygraph) on albachelin monooxygenase (AMO)

Usually Km stands for the concentration of substrate that gives half-maximal velocity. On to `NC(=O)C1=CN([C@@H]2O[C@H](COP(=O)(O)OP(=O)(O)OC[C@H]3O[C@@H](n4cnc5c(N)ncnc54)[C@H](OP(=O)(O)O)[C@@H]3O)[C@@H](O)[C@H]2O)C=CC1` [NADPH], for which the Km (10 mM Orn) came to 1400 ± 160 µM.

For `NC(=O)C1=CN([C@@H]2O[C@H](COP(=O)(O)OP(=O)(O)OC[C@H]3O[C@@H](n4cnc5c(N)ncnc54)[C@H](O)[C@@H]3O)[C@@H](O)[C@H]2O)C=CC1` [NADH], under “10 mM Orn”, the Km came out at 320 ± 100 µM.

Consider `NCCC[C@H](N)C(=O)O` [Orn], for which, for the setting “5 mM NADPH”, the Michaelis-Menten constant (Km) is 305 ± 108 µM.
